Converted amounts (≈) assume the structure as drawn.
How the values were obtained:
physchem = conditions: pH 7.4, aqueous buffer, thermodynamic from solid
Method: The test concentration was 100 μM (0% of DMSO for test compounds, 1% of DMSO for reference compounds). The test system was a 100 mM phosphate buffer (pH 7.4). Sample size was duplicates (n=2) and the bioanalytical method was LC-UV (Agilent-1200). Mobile phase A: H2O-1% TFA, B: MeOH-1% TFA; column Boston Symmetrix ODS-H (2.1×50 mm, 5 μm); LC conditions 0.4 mL/Min.
Assay Procedure • 1. For reference compounds: • Add 8 μL of 10 mM DMSO stock solution into 792 μL of 100 mM phosphate buffer (n=2). Final conc.=100 μM (1% of DMSO)
For test compounds: • Add 8 μL of 10 mM DMSO stock solution into the tubes (n=2). • Dry the samples under nitrogen. • Add 800 μL of 100 mM phosphate buffer into the tubes. Final conc.=100 μM (0% of DMSO) • 2. Sample tubes are shaken for 1 hour (1000 rpm) at room temperature and 37° C. • 3. Samples are centrifuged (10 min-12000 rpm) to precipitate un-dissolved particles. • 4. Supernatants are transferred to new tubes • 5. Concentrations of the supernatants after centrifugation are determined by LC-UV detection.

JAK3 = target: T1, JAK3 (Homo sapiens, UniProt P52333); experiment: JAK3 enzymatic activity assay (Z'-LYTE Biochemical Kinase Assay, 2 hr preincubation at 4° C.); conditions: cell free, 1% DMSO, read-out: JAK3 activity cell free (2 hr preincubation at (4° C.) Kj)
T1 construct: purchased Invitrogen, Madison, Wis
T1 sequence (P52333 1-1124): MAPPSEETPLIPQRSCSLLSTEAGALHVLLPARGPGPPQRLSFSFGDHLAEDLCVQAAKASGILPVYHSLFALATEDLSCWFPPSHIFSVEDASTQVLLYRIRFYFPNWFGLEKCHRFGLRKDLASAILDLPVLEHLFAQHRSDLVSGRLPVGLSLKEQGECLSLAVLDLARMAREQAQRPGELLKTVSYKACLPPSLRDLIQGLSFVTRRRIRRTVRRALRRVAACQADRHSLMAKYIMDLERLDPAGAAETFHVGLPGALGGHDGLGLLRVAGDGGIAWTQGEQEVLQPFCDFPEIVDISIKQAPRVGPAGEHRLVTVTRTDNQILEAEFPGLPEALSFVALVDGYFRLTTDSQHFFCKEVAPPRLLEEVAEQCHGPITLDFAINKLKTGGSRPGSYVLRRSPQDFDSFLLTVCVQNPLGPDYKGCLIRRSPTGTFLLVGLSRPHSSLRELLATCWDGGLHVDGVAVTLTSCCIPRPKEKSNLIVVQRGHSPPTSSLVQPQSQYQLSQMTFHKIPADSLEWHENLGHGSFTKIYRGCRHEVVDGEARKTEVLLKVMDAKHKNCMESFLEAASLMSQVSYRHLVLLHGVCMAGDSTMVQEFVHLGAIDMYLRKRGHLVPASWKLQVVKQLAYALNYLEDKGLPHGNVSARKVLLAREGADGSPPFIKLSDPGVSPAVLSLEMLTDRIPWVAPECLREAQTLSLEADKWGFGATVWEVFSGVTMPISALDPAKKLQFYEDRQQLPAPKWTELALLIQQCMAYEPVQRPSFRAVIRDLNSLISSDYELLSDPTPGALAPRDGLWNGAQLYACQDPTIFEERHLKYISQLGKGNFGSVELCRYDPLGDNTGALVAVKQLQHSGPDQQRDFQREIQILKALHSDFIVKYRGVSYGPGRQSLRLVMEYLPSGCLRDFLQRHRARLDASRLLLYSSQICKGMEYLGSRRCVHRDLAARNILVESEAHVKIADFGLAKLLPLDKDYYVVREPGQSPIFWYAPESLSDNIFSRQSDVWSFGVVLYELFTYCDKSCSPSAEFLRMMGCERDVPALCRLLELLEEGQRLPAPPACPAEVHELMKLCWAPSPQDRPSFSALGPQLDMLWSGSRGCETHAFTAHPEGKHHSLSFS
Method: The assays were performed according to manufacturer's protocols, except that prior to the kinase reaction they were pre-incubated for 2 hours at 4° C., in order to be able to assay for time-dependent inhibition.
In addition to the compound, each 10 μL JAK3 kinase reaction contained 0.43-1.89 ng JAK3 and 2 μM peptide substrate in 50 mM HEPES (pH 7.5), 0.01% BRIJ-35, 10 mM MgCl2 and 1 mM EGTA. The kinase reaction was allowed to proceed for 1 hour.

[1] = tested on: Interleukin 4/STAT6-STAT6-bla RA1; experiment: Interleukin 4/STAT6-STAT6-bla RA1 inhibition (IL-4-stimulated STAT6 activity in Ramos cells); format: cell-based; conditions: Homo sapiens, Ramos; Table 1, 6th column; read-out: Cell based IL4 stimulation IC50
Method: The inhibition of Interleukin 4/STAT6-STAT6-bla RA1 (activated by IL-4) by several compounds was determined using the Screening Protocol and Assay Conditions (Invitrogen, Madison, Wis.). The assays were performed according to manufacturer's protocols. Example 4, Cell-line Specific Protocols IL-4-stimulated STAT6 activity in Ramos cells for details.
Mechanism-based inhibition assays using compound 7A (Table 1) were performed using GeneBLAzer® Technology (Invitrogen Corporation), according to manufacturer specifications. […] In this state, excitation of the coumarin results in fluorescence resonance energy transfer to the fluorescein moiety and emission of green light. […] Excitation of the coumarin in the presence of Beta-lactamase activity results in a blue fluorescence signal. […]
An activator assay screen was run to obtain the EC80 concentration of the known activator to add in step 3. • 1. […] 4 μL of the EC80 concentration of activator, as determined in an Activator assay, was added to all wells containing compound and known inhibitor to bring the final assay volume to 40 μL. • 4. […] The assay plate was read on a fluorescence plate reader (Tecan Safire) and the data is analyzed. […]
STAT6-bla RA1 cells were thawed. […] The plate was read on a fluorescence plate reader.

| SMILES | solubility at 1 h (physchem; Solubility (μM) Mean) | solubility at 1 h (physchem; Solubility in PBS) | further results |
| --- | --- | --- | --- |
| Cl.O=C(CN1CCOCC1)Nc1cccc(-c2nc(-c3c[nH]c(C(=O)N4CCCC4)c3)cs2)c1 [9X (sample 2), 2-morpholino-N-(3-(4-(5-(pyrrolidine-1-carbonyl)-1H-pyrrol-3-yl)thiazol-2-yl)phenyl)acetamide hydrochloride salt] | 51.9 µM | 10 to 80 µM |  |
| O=C(c1cc(-c2csc(-c3ccccc3)n2)c[nH]1)N1CCCC1 [11A] |  |  | Ki (JAK3): 1.1 to 10 µM; IC50 [1]: 0.11 to 1 µM |
| CC(=O)N1CCN(c2ccc(OCC3COC(Cn4ccnc4)(c4ccc(Cl)cc4Cl)O3)cc2)CC1 (centres unmarked) [Ketoconazole, reference compound] | 15.9 µM (≈ 8.45 µg/mL) | 15.9 µM (≈ 8.45 µg/mL) |  |
| CC(C)NCC(O)COc1cccc2ccccc12 (centres unmarked) [Propranolol, reference compound] |  |  | solubility at 1 h (physchem; Solubility (μM) Mean, kinetic solubility, 100 mM phosphate buffer (pH 7.4), test concentration 100 μM, n=2, LC-UV): > 100 µM; solubility at 1 h (physchem; Solubility in PBS, 100 mM phosphate buffer pH 7.4, test concentration 100 μM): ~100 µM (≈ 25.9 µg/mL) |

From US8937065B2, “Compositions and methods for modulating a kinase” (Clevexel Pharma, priority 2011, dated 2015)
